Experimental data taken from patent US4151300A, “Acetohydroxamic acids” (Laboratoire L. Lafon, priority 1976, dated 1979).
Entries after “also recorded” stand apart in the source; their conditions may differ. Like-named read-outs stand apart in the source and are kept apart here.

Experiments:
[1] = tested on: mice; test: inter-group aggressiveness (number of fights); format: in vivo; conditions: mice, i.p.; for aggressiveness: large/high dose
Procedure: (§1) The following text summarises a part of the results of the tests which were carried out with the products according to the invention, these products (unless otherwise stated) being administered intraperitoneally, in suspension in a gum solution (gum arabic), in a volume of 20 ml/kg in the case of mice and of 5 ml/kg in the case of rats.
After three weeks' residence in each of the halves of a cage divided by an opaque partition, the mice receive CRL 40,373 thirty minutes before being brought together by withdrawing the partition.
After 18 days' residence on either side of a partition separating their cage in the middle, groups of 3 mice receive CRL 40,385 and are brought together half an hour later by withdrawing the partition, and the number of fights which take place in the course of 15 minutes is noted.

[2] = tested on: mice; test: toxicity (isolated mice, intraperitoneal); format: in vivo
Procedure: as §1

[3] = tested on: mice; test: spontaneous motility (actimeter); format: in vivo
Procedure: as §1
Thirty minutes after having been given CRL 40,373, the mice (6 per dose, 12 comparison animals) are placed in an actimeter, where their motility is recorded for half an hour.
Thirty minutes after having been given CRL 40,385, the mice are placed in actimeters where their motility is recorded for half an hour.

[4] = tested on: central nervous system; test: psychopharmacological study / behaviour; format: in vivo, mice; conditions: for reactivity: mice
[5] = tested on: mice; test: motility reduced by hypoxia treatment (motor recovery); format: in vivo; conditions: mice, i.p.
[6] = tested on: mice; test: interaction with oxotremorine (temperature, trembling, peripheral cholinergic symptoms); format: in vivo; conditions: mice, i.p.
[7] = tested on: mice; test: traction (motor incoordination); format: in vivo, mice (EVIC CEBA strain)
[8] = tested on: mice; test: four-plate test; format: in vivo, mice (EVIC CEBA strain)
Procedure: as §1
(§2) The test is carried out on batches of 10 sensitive mice (EVIC CEBA strain), 30 minutes after the administration of CRL 40,373.
(§3) Batches of 10 mice are subjected to the test thirty minutes after having received CRL 40,385.

[9] = tested on: man; test: clinical use in man; format: in vivo
[10] = tested on: mice; test: interaction with reserpine (hypothermia, ptosis); format: in vivo; conditions: i.p.
[11] = tested on: mice; test: electrical shock (convulsing effects); format: in vivo, mice (EVIC CEBA strain); conditions: mice, i.p.
Procedure: as §1, §2, §3

[12] = tested on: mice; test: motility reduced by habituation to a cage (residual motility); format: in vivo; conditions: i.p.
Procedure: as §1
Mice which have remained for 18 hours in the actimeters are given CRL 40,373. They are immediately replaced in their cages and, after a period of half an hour, their motility is recorded for 30 minutes (6 animals per dose, 12 comparison animals).
After remaining for 18 hours in the actimeters, the mice receive CRL 40,385. Immediately afterwards they are replaced in their cage and half an hour afterwards the recording of the motility starts and is continued for 30 minutes.

[13] = tested on: rats; test: interaction with amphetamine (stereotypies in rats); format: in vivo
Procedure: as §1
30 minutes after the administration of CRL 40,373, amphetamine is injected intraperitoneally at a dose of 2 mg/kg.
Thirty minutes after the administration of CRL 40,385 the rats are given an intraperitoneal injection of 2 mg/kg of amphetamine (6 animals per dose).

[14] = tested on: rats; test: interaction with apomorphine (stereotype behaviour in rats); format: in vivo
Procedure: as §1
Batches of six rats are each given a subcutaneous injection of apomorphine (0.5 mg/kg) 30 minutes after the administration of CRL 40,373.
Batches of 6 rats are given a subcutaneous injection of 0.5 mg/kg of apomorphine 30 minutes after the administration of CRL 40,385.

[15] = tested on: rats; test: prolonged conditioning to take avoiding action (shuttle box); format: in vivo
Text: Rats placed in a shuttle box are conditioned to avoid an electric shock by changing sides. The shock is preceded by a sound and light stimulus lasting 3 seconds, which ceases when sides are changed or after 8 seconds. The sequence is repeated every 20 seconds. Animals conditioned for several tens of minutes show a percentage of avoidance which is close to 100%. They continue to be subjected to the stimulus […] and gradually they reach a state in which they are no longer able to change sides during the period of 3 seconds during which no shock is delivered.
As a first approximation, such an effect can be likened to a resumption of conditioned activity in a tired animal.
Rats placed in a "shuttle box" are conditioned to avoid an electric shock lasting 5 seconds, by changing sides. The shock is preceded, for 3 seconds, by a sound and light stimulus which ceases when the rat changes side, or at the end of 8 seconds. The sequence repeats every 20 seconds. […] They continue to be subjected to the stimulus every 20 seconds and gradually they no longer succeed in avoiding the shock.
CRL 40,438 is then administered and any resumption of the avoidance movements is followed until the effect ceases.

`COc1ccc(C[S+]([O-])CC(=O)NO)cc1` (centres unmarked) [CRL 40,498, p-Methoxybenzyl-sulphinyl-acetohydroxamic acid] was tested, and the aggressiveness [1] was “reduction in motility, in aggressiveness”, the “LD-O (maximum non-lethal dose)” value ([2]; mice, i.p.) was “greater than 1,204 mg/kg” and the symptoms / behaviour ([2]; mouse, in vivo, ip, 256 mg/kg) was “sedation, depressed respiration and reaction to the touch”. For the same compound, the spontaneous motility ([3]; mice, high dose) was “reduction in motility”, the “body temperature effect (product alone)” value ([4]; high dose) was “hypothermia” and the “sedation / sedative effect” value ([4]; high dose(s)) was “sedation”. For the same compound, the reactivity ([4]; high dose) was “reduction in motility, in aggressiveness and in reactivity”, the “motor recovery after hypoxia/anoxia by pressure reduction” value [5] was “a discrete stimulant effect on the motility” and the “temperature (oxotremorine-induced hypothermia)” value [6] was “without alteration of the other hypothermia studied”. The motor incapacity ([7]; high dose) was “without motor incapacity”, the “number of incorrect moves (four-plate test)” value (“number of incorrect moves” below) ([8]; gastric administration, 512 to 32 mg/kg (and possibly less)) was “an increase in the number of incorrect moves” and the “number of incorrect moves” value ([8]; i.p., 512 to 2 mg/kg) was “an increase in the number of incorrect moves”. The clinical result ([9]; pill 100 mg, 2 pills per day) was “good results clinically as an anxiolytic agent”, the reserpine-induced hypothermia [10] was “partial antagonism to reserpine-induced hypothermia” and the reserpine-induced ptosis [10] was “without alteration of the ptosis”.

`CCCCC(CCCC)(CCCC)C(=O)NO` [CRL 40,373, Tributylacetohydroxamic acid] was tested, and the “convulsing effects of the electric shock” value [11] was “does not modify the convulsing effects of the electric shock”, the aggressiveness [1] was “reduces the number of fights” and the mortality ([2]; isolated mice, i.p., 64, 128, 256, 512 and 1,024 mg/kg) was “No mortality whatsoever”. For the same compound, the spontaneous motility ([3]; mice, i.p., 128 and 512 mg/kg) was “causes a reduction in the (spontaneous) motor activity of the mice”, the “motility reduced by habituation to the cage” value (“motility reduced” for short) [12] was “does not cause a resumption of the exploring activity of mice accustomed to their environment” and the “psychopharmacological profile / conclusion” value ([4]; mouse, in vivo) was “sedative agent”. The “motor recovery after hypoxia/anoxia by pressure reduction” value [5] was “does not produce an improvement in the motor recovery of mice”, the amphetamine-induced stereotypies ([13]; rats, i.p.) was “inhibits the amphetamine-induced stereotypies, this inhibition being proportional to the doses” and the oxotremorine-induced trembling [6] was “no significant influence on the trembling caused by oxotremorine”. For the same compound, the “temperature (oxotremorine-induced hypothermia)” value ([6]; 128 and 512 mg/kg, oxotremorine 0.5 mg/kg i.p.) was “exerts a hypothermia-inducing effect and aggravates the lowering of the temperature produced by oxotremorine”, the “peripheral cholinergic symptoms of oxotremorine” value ([6]; high doses (128 and 512 mg/kg)) was “increases the hypersalivation and hyperlacrymation produced by oxotremorine” and the “motor incoordination / incapacity” value ([7]; i.p.) was “does not bring about any major motor incoordination”. For the same compound, the apomorphine-induced stereotypies ([14]; rats, i.p.) was “not influenced”, the “number of incorrect moves” value ([8]; mice, i.p.) was “does not cause an increase in the number of incorrect moves” and the clinical result ([9]; tablet 100 mg, 1 to 3 tablets per day) was “used clinically with success as a sedative”. For the same compound, the reserpine-induced hypothermia [10] was “not modified” and the reserpine-induced ptosis [10] was “not modified”.

`O=C(CCN1c2ccccc2Sc2ccccc21)N[O-].[Na+]` was tested, and the “lethal effects of the electric shock” value ([11]; high doses (32 and 128 mg/kg)) was “increase in the lethal effects of the electric shock”, the “LD-O (maximum non-lethal dose)” value ([2]; mice, i.p.) was “greater than 256 mg/kg” and the time to death ([2]; mice, i.p., 512 mg/kg) was 24 h. For the same compound, the time to death ([2]; mice, i.p., 1,024 mg/kg) was 0.583 h, the motor activity ([3]; mice, i.p., from 8 mg/kg upwards) was “reduction of the motor activity” and the “motility reduced” value [12] was “not improved”. For the same compound, the “body temperature effect (product alone)” value ([4]; mouse, in vivo) was “hypothermia-inducing agent”, the “motor recovery after hypoxia/anoxia by pressure reduction” value [5] was “not improved” and the oxotremorine-induced trembling [6] was “does not alter the intensity or duration of the trembling movements induced by oxotremorine”. For the same compound, the “temperature (oxotremorine-induced hypothermia)” value [6] was “contributes its effect to the hypothermia-inducing action of oxotremorine”, the motor incapacity ([7]; mice, i.p., high doses (32 and 128 mg/kg)) was “substantial motor incapacity” and the reserpine-induced ptosis ([10]; 128 and 32 mg/kg) was “aggravates the ptosis induced by reserpine”. The reserpine-induced hypothermia ([10]; high dose) was “aggravates the hypothermia induced by reserpine”.

In the case of `O=C(CC(=O)N1c2ccccc2CCc2ccccc21)NO` [CRL 40,471, 5-(10,11-Dihydro-dibenz[b,f]azepino)-carbonylacetohydroxamic acid], the inter-group aggressiveness [1] is reported as “an effect of the anti-aggressive type appears to manifest itself in the absence of any hypomotility”, the aggressiveness [1] is reported as “reduces the intra-specific aggressiveness in mice” and the “LD-O (maximum non-lethal dose)” value ([2]; mouse, in vivo, ip) is reported as “greater than 1,024 mg/kg”. The spontaneous motility ([3]; mice, i.p., 512 mg/kg) was “very greatly reduces the spontaneous motility of mice”, the “motility reduced” value [12] was “does not cause a resumption of the motor activity in mice habituated to their cage” and the “psychopharmacological profile / conclusion” value ([4]; mouse, in vivo) was “sedative activity”. The “motor recovery after hypoxia/anoxia by pressure reduction” value [5] was “does not improve the motor recovery in mice”, the “motor recovery after hypoxia/anoxia by pressure reduction” value ([5]; 512 mg/kg) was “motor recovery comparable to that of the comparison mice” and the amphetamine-induced stereotypies ([13]; rats, i.p.) was “does not alter the stereotypies induced by amphetamine”. For the same compound, the apomorphine-induced stereotypies ([14]; rats, i.p.) was “does not alter the stereotypies induced by amphetamine and by apomorphine”, the clinical result ([9]; tablet 0.250 mg, 2 tablets per day) was “good results clinically as a sedative” and the reserpine-induced hypothermia [10] was “moderate antagonism against reserpine-induced hypothermia”.

With `CC(C(=O)NO)C(=O)N(c1ccccc1)c1ccccc1` (centres unmarked) [CRL 40,438, 2-(N,N-Diphenylcarbamoyl)-propionohydroxamic acid] the “resumption of avoiding actions (prolonged avoidance test)” value [15] was “an effect of the "anti-fatigue" type”, the “resumption of avoiding actions (prolonged avoidance test)” value ([15]; i.p., 64, 128 and 256 mg/kg) was “causes a resumption of the avoidance behaviour” and the aggressiveness [1] was “reduces the aggressive behaviour of mice”. For the same compound, the “LD-O (maximum non-lethal dose)” value ([2]; mice, i.p.) was “greater than 1,024 mg/kg”, the spontaneous motility ([3]; i.p.) was “moderate increase in the spontaneous motor activity” and the “motility reduced” value [12] was “very marked stimulant effect where the motility has been reduced by habituation to the cage”. The “stereotype movements (product alone)” value ([4]; high dose) was “presence, at a high dose, of stereotype movements”, the reactivity [4] was “hyper-reactivity in mice” and the “psychopharmacological profile / conclusion” value ([4]; mouse, in vivo) was “effects of the excitation-inducing type; also recorded: activity of the anti-depressant type or of the psychostimulant type”. The amphetamine-induced stereotypies ([13]; high dose) was “boosting of the stereotypies induced by apomorphine and by amphetamine”, the oxotremorine-induced trembling [6] was “moderately opposes hypothermia and ptosis induced by reserpine, and the trembling movements caused by oxotremorine” and the apomorphine-induced stereotypies ([14]; high dose) was “boosting of the stereotypies induced by apomorphine”. The reserpine-induced hypothermia [10] was “moderately opposes hypothermia” and the reserpine-induced ptosis [10] was “moderately opposes hypothermia and ptosis induced by reserpine”.
